Experiments:
Format in all cases: ADME, organism-based
Plasma [1] = assay: Fraction unbound in C57BL6 mouse plasma at 50 mg/kg, po; parameters: dose 50 mg/kg, route oral; conditions: in vivo
Plasma [2] = assay: Fraction unbound in C57BL6 mouse plasma at 25 mg/kg, po; parameters: dose 25 mg/kg, route oral; conditions: in vivo
[3] = Volume of distribution at steady state in C57BL6 mouse at 2 mg/kg, iv; parameters: dose 2 mg/kg, route intravenous; conditions: in vivo, read-out: Vdss
Plasma [4] = assay: Fraction unbound in C57BL6 mouse plasma at 25 mg/kg, po after 1 hr; parameters: dose 25 mg/kg, route oral; conditions: in vivo
[5] = Cmax in C57BL6 mouse at 5 mg/kg, po; parameters: dose 5 mg/kg, route oral; conditions: in vivo
[6] = Oral bioavailability in Sprague-Dawley rat at 5 mg/kg; conditions: in vivo
[7] = Volume of distribution at steady state in Sprague-Dawley rat at 2 mg/kg, iv; parameters: dose 2 mg/kg, route intravenous; conditions: in vivo, read-out: Vdss
[8] = Oral bioavailability in C57BL6 mouse at 5 mg/kg; conditions: in vivo
Plasma [9] = assay: Fraction unbound in C57BL6 mouse plasma at 25 mg/kg, po after 12 hrs; parameters: dose 25 mg/kg, route oral; conditions: in vivo
Plasma [10] = assay: Fraction unbound in C57BL6 mouse plasma at 25 mg/kg, po after 8 hrs; parameters: dose 25 mg/kg, route oral; conditions: in vivo
Plasma [11] = assay: Fraction unbound in C57BL6 mouse plasma at 35 mg/kg, po; parameters: dose 35 mg/kg, route oral; conditions: in vivo
Plasma [12] = assay: Fraction unbound in C57BL6 mouse plasma at 100 mg/kg, po; parameters: dose 100 mg/kg, route oral; conditions: in vivo
Plasma [13] = assay: Fraction unbound in C57BL6 mouse plasma at 15 mg/kg, po; parameters: dose 15 mg/kg, route oral; conditions: in vivo
[14] = Cmax in Sprague-Dawley rat at 5 mg/kg, po; parameters: dose 5 mg/kg, route oral; conditions: in vivo
Plasma [15] = assay: Fraction unbound in C57BL6 mouse plasma at 25 mg/kg, po after 4 hrs; parameters: dose 25 mg/kg, route oral; conditions: in vivo
[16] = AUC (0 to 24 hrs) in Sprague-Dawley rat at 5 mg/kg, po; parameters: time < 24 hr, dose 5 mg/kg, route oral; conditions: plasma

Row | Cp(f) (Plasma [1]) [nM] | Cp(f) (Plasma [2]) [nM] | Vd [3] [L/kg] | Cp(f) (Plasma [4]) [nM] | Cmax [5] [nM] | bioavailability [6] [%] | Vd [7] [L/kg] | bioavailability [8] [%] | Cp(f) (Plasma [9]) [nM] | Cp(f) (Plasma [10]) [nM] | Cp(f) (Plasma [11]) [nM] | Cp(f) (Plasma [12]) [nM] | Cp(f) (Plasma [13]) [nM] | Cmax [14] [nM] | Cp(f) (Plasma [15]) [nM] | AUC(0-t) at 24 h [16] [ng·h/mL] | Compound
1 | 988 | 708 | 0.98 | 1165 | 5800 | 34 | 1.8 | 46 | 498 | 882 | 618 | 1482 | 95 | 1200 | 1142 | – | CCOc1ccc(N2CCN(c3noc(C4(NC(C)=O)CCC4)n3)[C@@H](C)C2)c(C)c1
2 | – | – | – | – | – | 17 | 12.8 | – | – | – | – | – | – | 380 | – | 291 | CCOc1ccc(N2CCN(c3noc(CC)n3)[C@@H](C)C2)c(C)c1

Reference: ChEMBL document CHEMBL3108682, “Piperazine oxadiazole inhibitors of acetyl-CoA carboxylase” (J Med Chem, 2013)
